What was measured:
[1] = test system: MV4-11 cells; experiment: Cytotoxicity against MV4-11 cells (CellTiter-Glo); assay type: cell-based; details: Homo sapiens, incubated for 72 hours, CellTiter-Glo chemiluminescence
Experimental: Determination of the IC50 Value of the Compound's Cytotoxicity Against MV4-11 Cells
MV-4-11 cells were cultured with IMDM complete medium (IMDM+10% fetal bovine serum+1% Penicillin-Streptomycin, a mixture of penicillin-streptomycin). • 2. MV-4-11 cells in good condition were collected and washed twice with DPBS ([…] phosphate buffered saline solution). • 3. MV-4-11 cells were resuspended with IMDM complete medium, the cell density was adjusted to 1.11×10^6 cells/mL, and the MV-4-11 cells were added to 96-well plates at 90 μL per well. • 4. A compound solution with 10-fold concentration was prepared with IMDM complete medium, 10 μL of the compound solution with 10-fold concentration was added to the cells in the 96-well plate, mixed well, and then the 96-well plate was placed in a 5% CO2 incubator at 37° C. and incubated for 72 hours. • 5. After the incubation, the 96-well plate was taken out and equilibrated for 30 minutes at room temperature. Then 100 μL of CellTiter Glo reagent was added to each well and mixed on a horizontal shaker for 2 minutes. • 6. The 96-well plate was removed, equilibrated at room temperature for 10 minutes, and the chemiluminescence value was detected on a microplate reader.

[2] = biological target: T1, IRAK4 kinase (Homo sapiens, UniProt Q9NWZ3); experiment: Kinase inhibition, fluorescence microfluidic mobility shift assay (IRAK4); assay type: biochemical; details: substrate peptide FAM-P8 3 μM, ATP 10 μM; one hour at 28° C.; assayed in duplicate
T1 sequence (Q9NWZ3 1-460): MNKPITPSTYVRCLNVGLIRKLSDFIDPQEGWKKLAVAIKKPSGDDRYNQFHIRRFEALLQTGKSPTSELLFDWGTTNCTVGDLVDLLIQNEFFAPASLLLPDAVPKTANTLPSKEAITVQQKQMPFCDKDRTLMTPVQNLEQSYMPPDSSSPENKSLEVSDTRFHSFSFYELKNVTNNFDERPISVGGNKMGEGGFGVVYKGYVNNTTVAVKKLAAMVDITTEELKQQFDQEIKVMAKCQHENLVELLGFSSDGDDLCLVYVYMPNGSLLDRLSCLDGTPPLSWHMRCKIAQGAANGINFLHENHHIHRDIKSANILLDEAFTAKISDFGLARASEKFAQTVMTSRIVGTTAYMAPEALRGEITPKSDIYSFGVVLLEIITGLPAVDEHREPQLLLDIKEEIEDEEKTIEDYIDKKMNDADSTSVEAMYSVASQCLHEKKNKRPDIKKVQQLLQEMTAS

[3] = biological target: T2, FLT3 kinase (Homo sapiens, UniProt P36888); experiment: Kinase inhibition, fluorescence microfluidic mobility shift assay (FLT3); assay type: biochemical; details: substrate peptide FAM-P2 3 μM, ATP 97 μM; one hour at 28° C.; assayed in duplicate
T2 sequence (P36888 564-993): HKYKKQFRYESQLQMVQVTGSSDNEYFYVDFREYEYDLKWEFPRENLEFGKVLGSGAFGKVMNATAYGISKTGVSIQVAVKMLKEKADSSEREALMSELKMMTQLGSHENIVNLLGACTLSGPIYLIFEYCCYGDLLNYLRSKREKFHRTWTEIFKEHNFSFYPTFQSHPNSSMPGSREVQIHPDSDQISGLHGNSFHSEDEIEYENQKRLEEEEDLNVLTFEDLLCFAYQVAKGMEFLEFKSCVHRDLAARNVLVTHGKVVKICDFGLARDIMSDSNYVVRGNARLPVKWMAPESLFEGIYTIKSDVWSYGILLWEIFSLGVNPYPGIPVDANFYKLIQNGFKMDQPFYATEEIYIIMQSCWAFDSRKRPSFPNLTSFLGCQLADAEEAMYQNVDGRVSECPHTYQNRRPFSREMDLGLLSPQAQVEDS
Experimental: Based on the experimental method of fluorescence microfluidic mobility shift assay, the IC50 value of the compound for competitive binding of ATP to kinases IRAK4 and FLT3 was determined. The initial detection concentration of the compound was 10 μM, which was diluted to 0.38 nM with a 4-fold gradient and assayed in duplicate. In this case, commercially available staurosporine was the standard control for the assay.
Information on reagents and consumables is as follows: • IRAK4 kinase (Carna, Cat. No. 09-145, Lot. No. 14CBS-0020 H) • FLT3 kinase (Carna, Cat. No. 08-154, Lot. No. 07CBS-2350) • Substrate peptide FAM-P2 (GL Biochem, Cat. No. 112394, Lot. No. P131014-XP112394) • Substrate peptide FAM-P8 (GL Biochem, Cat. No. 112396, Lot. No. P170731-SY112396) • ATP (adenosine triphosphate, Sigma, Cat. No. A7699-1G, CAS No. 987-65-5) • DMSO (dimethyl sulfoxide, Sigma, Cat. No. D2650) • EDTA (ethylenediaminetetraacetic acid, Sigma, Cat. No. E5134, CAS No. 60-00-4) • Staurosporine (Selleckchem, Cat. No. 51421) • HEPES (4-(2-Hydroxyethyl)-1-piperazineethanesulfonic acid, Gibco, Cat. No. 15630-080) • Brij-35 solution (Polyoxyethylene lauryl ether, Sigma, Cat. No. B41840-100 mL) • DTT (dithiothreitol, Sigma, Cat. No. D0632-20G) • 0.2% Coating Reagent #3 (0.2% coating reagent, Perkin Elmer, Cat. No. 760050) • 96-well plate (Corning, Cat. No. 3365) • 384-well plate (Corning, Cat. No. 3573) Experimental operation method: • 1) FLT3 and IRAK4 kinases were dissolved in the kinase buffer (50 mM HEPES pH 7.5, 10 mM MgCl2, 2 mM DTT, and 0.01% Brij-35) at final concentrations of 0.9 nM, 30 nM, and 6 nM, respectively. • 2) The substrate peptide FAM-P2 and the substrate peptide FAM-P8, together with ATP, were dissolved in the above kinase buffer, respectively, where the final concentrations of the substrate peptide FAM-P2 and ATP for the determination of FLT3 were 3 μM and 97 μM, respectively; and the final concentrations of the substrate peptide FAM-P8 and ATP for the determination of IRAK4 were 3 μM and 10 μM, respectively. • 3) Compound dilution: The compound was first diluted to 50 μM, and then diluted downward with DMSO in a 4-fold gradient. In this case, the solution without compound and kinase served as the blank control, corresponding to the “minimum value” shown below; the solution without compound but containing kinase, adenosine triphosphate, DMSO, and the buffer served as the positive control, corresponding to the “maximum value” shown below. • 4) Kinase reaction and termination: 10 μL of the kinase buffer was added to a 384-well plate containing 5 μL of the compound to be tested, and the mixture was incubated for 10 minutes at room temperature; another 10 μL, of buffer containing the substrate peptide and adenosine triphosphate was added to the 384-well plate, and after incubation for one hour at 28° C., 25 μL, of termination solution (100 mM HEPES pH 7.5, 50 mM EDTA, 0.2% Coating Reagent #3, and 0.015% Brij-35) was added to each well for reaction termination. • 5) Data reading: CaliperEZ Reader II instrument was used to read the conversion rate data. Setting conditions: downstream voltage as −500 V, upstream voltage as −2250 V, base pressure as −0.5 PSI, and screening pressure as −1.2 PSI. • 6) Data calculation: the conversion rate data was copied from CaliperEZ Reader II, and the conversion rate was converted into inhibition rate data.

| Structure (SMILES) | IC50 [1] [nM] | IC50 [2] [nM] | IC50 [3] [nM] |
| --- | --- | --- | --- |
| Cc1cc(-c2nc(C(=O)Nc3cc4cn(CC5(F)CNC5)nc4cc3C(C)(C)O)co2)ccn1 [II-108] | 22 | 11.7 | 0.29 |
| [2H]C([2H])([2H])C(O)(c1cc2nn(CCC(C)(C)O)cc2cc1NC(=O)c1coc(-c2ccnc(C(F)(F)F)c2)n1)C([2H])([2H])[2H] [II-109] | 15.2 | 6.48 | 4.2 |
| Cc1cc(-c2nc(C(=O)Nc3cc4cn(CCC(C)(C)O)nc4cc3C(C)(O)C(F)(F)F)co2)ccn1 (stereo not drawn) [II-111] | 0.8 | 4.94 | 0.42 |
| CC(C)(O)c1cc2nn([C@H]3CC[C@@H](O)CC3)cc2cc1NC(=O)c1coc(-c2ccnc(C(F)(F)F)c2)n1 [II-112] | 11.9 | 6.96 | 2.8 |
| CC(C)N1CCC(n2cc3cc(NC(=O)c4coc(-c5ccnc(C(F)(F)F)c5)n4)c(C(C)(C)O)cc3n2)CC1 [II-113F] | 6 | 4.6 | 0.38 |
| Cc1cc(-c2nc(C(=O)Nc3cc4cn(C5CC6CCC(C5)O6)nc4cc3C(C)(C)O)co2)ccn1 (stereo not drawn) [II-114] | 1.3 | 5.9 | 0.26 |
| Cc1cc(-c2nc(C(=O)Nc3cc4cn(CC5(F)COC5)nc4cc3C(C)(C)O)co2)ccn1 [II-115] | 2.5 | 11 | 0.25 |
| [2H]C([2H])([2H])C(O)(CCn1cc2cc(NC(=O)c3coc(-c4ccnc(C(F)(F)F)c4)n3)c(C(C)(C)O)cc2n1)C([2H])([2H])[2H] [II-117] | 23.2 | 5.54 | 4 |
| CC(C)(O)c1cc2nn(C3CC4CCC(C3)N4)cc2cc1NC(=O)c1coc(-c2ccnc(C(F)(F)F)c2)n1 (stereo not drawn) [II-118] | 6.2 | 12.2 | 0.44 |
| CC(C)(O)c1cc2nn(C3CCOCC3)cc2cc1NC(=O)c1coc(-c2ccnc(C(F)(F)F)c2)n1 [II-121] | 33 | 9.1 | 3.5 |
| Cc1cc(-c2nc(C(=O)Nc3cc4oc(N5CCOCC5)nc4nc3C(C)(C)O)co2)ccn1 [II-122] | 33 | 14.1 | 6.23 |
| Cc1cc(-c2nc(C(=O)Nc3cc4sc(N5CCOCC5)nc4nc3C(C)(C)O)co2)ccn1 [II-124] | 5 | 4.8 | 0.31 |
| Cc1cc(-c2nc(C(=O)Nc3cc4oc(N5CCC(F)(F)CC5)nc4nc3N3CCC(O)C3)co2)ccn1 (stereo not drawn) [II-129] | 49.6 | 57 | 11 |
| Cc1cc(-c2nc(C(=O)Nc3cc4oc(N5CCOCC5)nc4cc3N3CCC(O)C3)co2)ccn1 (stereo not drawn) [II-132] | 1.2 | 7.18 | 0.35 |
| Cc1cc(-c2nc(C(=O)Nc3cc4sc(N5CCOCC5)nc4cc3N3CCC(O)C3)co2)ccn1 (stereo not drawn) [II-133] | 0.2 | 4.84 | 0.26 |
